The text below walks through data of patent publication US20160296499A1, “Spiroindoline Antiparasitic Derivatives” (ZOETIS SERVICES LLC, priority 2013, published 2016).

The test system of assay [1] is Haemonchus contortus L3. In words: Haemonchus contortus, Larvae Stage 3 (HcL3) In Vitro Assay. As to conditions: Haemonchus contortus.
The test system of assay [2] is Dirofilaria immitis microfilariae. In words: Dirofilaria immitis, Microfilariae (DiMF) In Vitro Assay. The conditions noted are these: Dirofilaria immitis.
Assay [3] has as its target T1, bovine vesicular acetylcholine transporter (VAChT) (Bos taurus, UniProt E1BK36).
T1 sequence (E1BK36 1-524): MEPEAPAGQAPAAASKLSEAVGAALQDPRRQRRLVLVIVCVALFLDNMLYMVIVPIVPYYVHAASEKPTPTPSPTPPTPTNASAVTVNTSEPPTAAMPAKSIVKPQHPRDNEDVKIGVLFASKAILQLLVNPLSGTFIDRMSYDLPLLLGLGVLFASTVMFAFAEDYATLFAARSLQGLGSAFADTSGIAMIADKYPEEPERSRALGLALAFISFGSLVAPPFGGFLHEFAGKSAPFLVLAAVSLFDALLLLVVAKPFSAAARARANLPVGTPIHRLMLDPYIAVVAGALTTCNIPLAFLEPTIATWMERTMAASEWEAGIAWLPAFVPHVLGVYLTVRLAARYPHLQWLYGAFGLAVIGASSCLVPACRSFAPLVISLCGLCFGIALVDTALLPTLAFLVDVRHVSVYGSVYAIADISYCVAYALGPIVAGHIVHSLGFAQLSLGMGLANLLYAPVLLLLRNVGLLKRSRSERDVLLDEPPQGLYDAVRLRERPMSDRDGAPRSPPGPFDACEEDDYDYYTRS
Description: Radioligand Binding Assay. As to conditions: Bovine binding Ki, CHO-K1 membranes with recombinant bovine VAChT, [3H]Compound X6 0.3 nM.
Description: To measure binding affinity, CHO-K1 cells recombinantly expressing the bovine VAChT was generated as a stable cell line and subsequently used to produce membrane preparations.
Radioligand binding assays were conducted in disposable polypropylene 96-well plates. VAChT competition assays were initiated by the addition of bovine recombinant membrane homogenate (50 μg/well) in assay buffer (50 mM Tris-HCl, 120 mM NaCl, 5 mM KCl, 1 mM MgCl, and 2 mM CaCl, pH 7.4) containing [^3H]Compound X6 (0.3 nM) with or without competing ligand. The assay was allowed to equilibrate for 120 minutes at room temperature, before being filtered onto GF/C unifilter plates pre-coated in 0.3% polyethylenimine (Perkin Elmer Life and Analytical Sciences, Boston, Mass.) with a Filtermate 96 harvester (PerkinElmer Life and Analytical Sciences). Filters were washed in ice-cold 50 mM Tris-HCl, pH 7.4 buffer and then counted for radioactivity in a TopCount microplate scintillation counter after addition of 50 μL Microscint 20 (PerkinElmer). Non-specific binding was measured in the presence of 10 μM Compound X6. Apparent dissociation constants (Ki values) from the competition experiments were calculated using an iterative nonlinear regression curve-fitting program (GraphPAD Prism 6.0 Software, San Diego, Calif.) and are reported in Table 2.

[4] abbreviates: 96 h, read-out: HcL3 MEC, Minimal Effective Concentration whereby worm motility is inhibited by approximately 70%, 37° C., tested 0.001-100 μM.
The mark [5] stands for this setting: 72 h, read-out: Di MF, MEC, decrease in microfilariae motility by visual assessment, curve starting at 100 μM.
Setting [6] is: 96 hours, 37° C., read-out: HcL3 MEC.

Where two headings read alike, the source gives them in different places.

For the compound `COc1ccc2ccc(CN3CCC4(CC3)CN(C(=O)NCc3ccnc(Cl)c3)c3ccc(C#N)cc34)c(C)c2n1` [Example 118, N-[(2-chloro-4-pyridyl)methyl]-5-cyano-1′-[(2-methoxy-8-methyl-7-quinolyl)methyl]spiro[indoline-3,4′-piperidine]-1-carboxamide], the minimal effective concentration in assay [1] (setting [4]) came out at 3.3 µM; in assay [2] (setting [5]), 57.4 µM. Besides, the Ki (commonly the dissociation constant of the complex between target and ligand, obtained from inhibition or displacement) in assay [3] was 28.4 nM.
In the same order, the values of `COc1ccc(-c2ccc3c(c2)C2(CCN(C/C=C/c4ccc(Cl)cc4)CC2)CN3C(=O)NCc2ccnc(Cl)c2)cn1` [Example 119, 1′-[(E)-3-(4-chlorophenyl)allyl]-N-[(2-chloro-4-pyridyl)methyl]-5-(6-methoxy-3-pyridyl)spiro[indoline-3,4′-piperidine]-1-carboxamide] are 100 µM, 10 µM and 177 nM.
In the same order, the values of `N#Cc1ccc(-c2ccc3c(c2)C2(CCN(C/C=C/c4ccc(C(F)(F)F)cc4)CC2)CN3C(=O)NCc2ccnc(Cl)c2)cn1` [Example 120, N-[(2-chloro-4-pyridyl)methyl]-5-(6-cyano-3-pyridyl)-1′-[(E)-3-[4-(trifluoromethyl)phenyl]allyl]spiro[indoline-3,4′-piperidine]-1-carboxamide] are 100 µM, 1.2 µM and 13900 nM.
In the case of `O=C(NCc1ccnc(Cl)c1)N1CC2(CCN(C/C=C/c3ccc(Cl)cc3)CC2)c2c(OC(F)(F)F)ccc(Cl)c21` [Example 121, (E)-7-chloro-1′-(3-(4-chlorophenyl)allyl)-N-((2-chloropyridin-4-yl)methyl)-4-(trifluoromethoxy)spiro[indoline-3,4′-piperidine]-1-carboxamide], the minimal effective concentration in assay [1] (setting [4]) is 100 µM; in assay [2] (setting [5]), 6.9 µM. Also, the Ki in assay [3] was determined as 1260 nM.
`O=C(NCc1ccnc(Cl)c1)N1CC2(CCN(C/C=C/c3ccc(Cl)cc3)CC2)c2c(F)cc(C(F)(F)F)cc21` [Example 122, (E)-1′-(3-(4-chlorophenyl)allyl)-N-((2-chloropyridin-4-yl)methyl)-4-fluoro-6-(trifluoromethyl)spiro[indoline-3,4′-piperidine]-1-carboxamide]: the minimal effective concentration came to 0.5 µM in assay [1] (setting [6]) and 10 µM in assay [2] (72 hours, read-out: Di MF). Besides, the Ki in assay [3] stood at 32.3 nM.
The like results for `Cc1ccc2c(c1)C1(CCN(C/C=C/c3ccc(Cl)c(Cl)c3)CC1)CN2C(=O)NCc1ccnc(Cl)c1` [Example 123, (E)-N-((2-chloropyridin-4-yl)methyl)-1′-(3-(3,4-dichlorophenyl)allyl)-5-methylspiro[indoline-3,4′-piperidine]-1-carboxamide] were, in that order, 1 µM, 10.2 µM and 20.8 nM.
Turning to `O=C(NCc1ccnc(Cl)c1)N1CC2(CCN(C/C=C/c3ccc(C(F)(F)F)cn3)CC2)c2ccc(C(F)(F)F)cc21` [Example 124, (E)-N-((2-chloropyridin-4-yl)methyl)-6-(trifluoromethyl)-1′-(3-(5-(trifluoromethyl)pyridin-2-yl)allyl)spiro[indoline-3,4′-piperidine]-1-carboxamide], the minimal effective concentration in assay [1] (setting [4]) was determined as 1 µM; in assay [2] (setting [5]) it was 10 µM. Also, the Ki in assay [3] worked out at 106 nM.
The like results for `COc1ccc(/C=C/CN2CCC3(CC2)CN(C(=O)NCc2ccnc(Cl)c2)c2cc(C(F)(F)F)ccc23)cc1` [Example 125, (E)-N-((2-chloropyridin-4-yl)methyl)-1′-(3-(4-methoxyphenyl)allyl)-6-(trifluoromethyl)spiro[indoline-3,4′-piperidine]-1-carboxamide] were, in that order, 1 µM, 10 µM and 20.4 nM.
Turning to `O=C(NCc1ccnc(Cl)c1)N1CC2(CCN(C/C=C/c3ccc(Cl)cc3)CC2)c2cc(F)c(C(F)(F)F)cc21` [Example 126, (E)-1′-(3-(4-chlorophenyl)allyl)-N-((2-chloropyridin-4-yl)methyl)-5-fluoro-6-(trifluoromethyl)spiro[indoline-3,4′-piperidine]-1-carboxamide], the minimal effective concentration stood at 1 µM in assay [1] (setting [6]) and 10 µM in assay [2] (72 hours, read-out: Di MF). For the same compound, the Ki in assay [3] was 33 nM.
Take `O=C(NCc1ccnc(F)c1)N1CC2(CCN(C/C=C/c3ccc(Cl)cc3)CC2)c2ccc(OC(F)(F)F)cc21` [Example 127, (E)-1′-(3-(4-chlorophenyl)allyl)-N-((2-fluoropyridin-4-yl)methyl)-6-(trifluoromethoxy)spiro[indoline-3,4′-piperidine]-1-carboxamide]: the minimal effective concentration turned out to be 1 µM in assay [1] (setting [4]) and 10 µM in assay [2] (setting [5]). Further, the Ki in assay [3] is 78.4 nM.
As to `O=C(NCc1ccnc(Cl)c1)N1CC2(CCN(C/C=C/c3ccc(C(F)(F)F)cc3)CC2)c2cc(Cl)c(F)cc21` [Example 128, (E)-5-chloro-N-((2-chloropyridin-4-yl)methyl)-6-fluoro-1′-(3-(4-(trifluoromethyl)phenyl)allyl)spiro[indoline-3,4′-piperidine]-1-carboxamide], the minimal effective concentration in assay [1] (setting [4]) is 1 µM; in assay [2] (setting [5]) it was 3.3 µM. For the same compound, the Ki in assay [3] came out at 44 nM.
Turning to `O=C(NCc1ccnc(Cl)c1)N1CC2(CCN(C/C=C/c3ccc(Cl)c(Cl)c3)CC2)c2cc(F)c(C(F)(F)F)cc21` [Example 129, (E)-N-((2-chloropyridin-4-yl)methyl)-1′-(3-(3,4-dichlorophenyl)allyl)-5-fluoro-6-(trifluoromethyl)spiro[indoline-3,4′-piperidine]-1-carboxamide], the minimal effective concentration in assay [1] (setting [6]) turned out to be 1.5 µM; in assay [2] (72 hours, read-out: Di MF) it was 10 µM. In addition, the Ki in assay [3] was 32.8 nM.
Regarding `O=C(NCc1ccnc(Cl)c1)N1CC2(CCN(C/C=C/c3ccc(OC(F)(F)F)cc3)CC2)c2ccc(C(F)(F)F)cc21` [Example 130, (E)-N-((2-chloropyridin-4-yl)methyl)-1′-(3-(4-(trifluoromethoxy)phenyl)allyl)-6-(trifluoromethyl)spiro[indoline-3,4′-piperidine]-1-carboxamide], the minimal effective concentration in assay [1] (setting [4]) was 1.8 µM; in assay [2] (setting [5]), 18.2 µM. For the same compound, the Ki in assay [3] amounted to 193 nM.
As to `O=C(NCc1ccnc(Cl)c1)N1CC2(CCN(C/C=C/c3ccc(Cl)c(Cl)c3)CC2)c2c(Cl)cccc21` [Example 131, (E)-4-chloro-N-((2-chloropyridin-4-yl)methyl)-1′-(3-(3,4-dichlorophenyl)allyl) spiro[indoline-3,4′-piperidine]-1-carboxamide], the minimal effective concentration in assay [1] (setting [4]) came to 3.3 µM; in assay [2] (setting [5]) it was 10 µM. In assay [3], the Ki was determined as 184 nM.
For the compound `N#Cc1cc2c(cc1C(F)(F)F)N(C(=O)NCc1ccnc(Cl)c1)CC21CCN(C/C=C/c2ccc(Cl)c(Cl)c2)CC1` [Example 132, (E)-N-((2-chloropyridin-4-yl)methyl)-5-cyano-1′-(3-(3,4-dichlorophenyl)allyl)-6-(trifluoromethyl)spiro[indoline-3,4′-piperidine]-1-carboxamide], the minimal effective concentration amounted to 3.3 µM in assay [1] (setting [6]) and 3.3 µM in assay [2] (72 hours, read-out: Di MF). In addition, the Ki in assay [3] came out at 49.9 nM.
With `O=C(NCc1ccnc(Cl)c1)N1CC2(CCN(C/C=C/c3ccc(Cl)c(Cl)c3)CC2)c2cc(C(F)(F)F)ccc21` [Example 133, (E)-N-((2-chloropyridin-4-yl)methyl)-1′-(3-(3,4-dichlorophenyl)allyl)-5-(trifluoromethyl)spiro[indoline-3,4′-piperidine]-1-carboxamide], the minimal effective concentration is 3.3 µM in assay [1] (setting [6]) and 7.6 µM in assay [2] (72 hours, read-out: Di MF). Moreover, the Ki in assay [3] worked out at 546 nM.
Regarding `O=C(NCc1ccnc(Cl)c1)N1CC2(CCN(C/C=C/c3ccc(Cl)c(Cl)c3)CC2)c2cc(Cl)c(C(F)(F)F)cc21` [Example 135, (E)-5-chloro-N-((2-chloropyridin-4-yl)methyl)-1′-(3-(3,4-dichlorophenyl)allyl)-6-(trifluoromethyl)spiro[indoline-3,4′-piperidine]-1-carboxamide], the minimal effective concentration in assay [1] (setting [6]) came to 3.3 µM; in assay [2] (72 hours, read-out: Di MF) it was 57.4 µM. For the same compound, the Ki in assay [3] amounted to 118 nM.
In the case of `O=C(NCc1ccnc(Cl)c1)N1CC2(CCN(C/C=C/c3ccc(Cl)c(Cl)c3)CC2)c2c1ccc(Cl)c2Cl` [Example 136, (E)-4,5-dichloro-N-((2-chloropyridin-4-yl)methyl)-1′-(3-(3,4-dichlorophenyl)allyl)spiro[indoline-3,4′-piperidine]-1-carboxamide], the minimal effective concentration worked out at 3.3 µM in assay [1] (setting [6]) and 100 µM in assay [2] (72 hours, read-out: Di MF). Besides, in assay [3], the Ki amounted to 160 nM.
